# Results as given in ChEMBL document CHEMBL6121054, “Discovery of Metabolic Reprogramming 2-Quinolones as Effective Antimicrobials for MRSA-Infected Wound Therapy” (J Med Chem, 2025).
# Active and inactive are the calls of the source. The rule behind the calls is not given here.
# Experiments:
# [1] = tested on: Staphylococcus aureus; experiment: Antibacterial activity against Staphylococcus aureus USA300 at 2 times MIC measured upto 24 hrs in presence of alpha-tocopherol; assay type: functional, organism-based
# [2] = tested on: Staphylococcus aureus; experiment: Antibacterial activity against Staphylococcus aureus USA300 incubated for 16 to 24 hrs by broth microdilution method; assay type: functional; settings: time 16-24 hrs
# [3] = tested on: Staphylococcus aureus; experiment: Effect on tyrosine metabolism in Staphylococcus aureus USA300 at 4 times MIC by KEGG analysis; assay type: functional, organism-based
# [4] = tested on: Staphylococcus aureus; experiment: Bactericidal activity against Staphylococcus aureus NCTC 8325-4; assay type: functional
# [5] = tested on: A549; experiment: Reversal of Staphylococcus aureus USA300-induced cytotoxicity in human A549 cells infected with bacteria assessed as reduction in number of dead cells at 4 to 8 ug/ml preincubated with compound followed by […] infection for 5 hrs by Calcein AM/Ethidium homodimer-1 dye based analysis; assay type: functional, cell-based; settings: dose 4-8 µg/ml
# [6] = tested on: Staphylococcus aureus; experiment: Inhibition of resistance development in Staphylococcus aureus USA300 incubated for 24 hrs measured after 14 passages by broth microdilution method; assay type: functional, organism-based
# [7] = tested on: Staphylococcus aureus; experiment: Effect on lysine degradation in Staphylococcus aureus USA300 at 4 times MIC by KEGG analysis; assay type: functional, organism-based
# [8] = tested on: A549; experiment: Reversal of Staphylococcus aureus USA300-induced cytotoxicity in human A549 cells infected with bacteria assessed as cell viability upto 8 ug/ml preincubated with compound followed by […] infection for 5 hrs by LDH assay; assay type: functional, cell-based; settings: dose <= 8.0 µg/ml
# [9] = tested on: Staphylococcus aureus; experiment: Induction of ROS accumulation in Staphylococcus aureus USA300 upto 0.25 ug/ml incubated for 1 hr by DCFH-DA dye based analysis; assay type: functional, organism-based; settings: dose <= 0.25 µg/ml
# [10] = tested on: Staphylococcus aureus; experiment: Antibacterial activity against Staphylococcus aureus ATCC 29213 incubated for 16 to 24 hrs by broth microdilution method; assay type: functional; settings: time 16-24 hrs
# [11] = tested on: Staphylococcus aureus; experiment: Antibacterial activity against Staphylococcus aureus ATCC 25904 incubated for 16 to 24 hrs by broth microdilution method; assay type: functional; settings: time 16-24 hrs
# [12] = tested on: Staphylococcus aureus; experiment: Bactericidal activity against Staphylococcus aureus ATCC 25904; assay type: functional
# [13] = tested on: Staphylococcus aureus; experiment: Effect on pyrimidine metabolism in Staphylococcus aureus USA300 at 4 times MIC by KEGG analysis; assay type: functional, organism-based
# [14] = tested on: Staphylococcus aureus; experiment: Effect on purine metabolism in Staphylococcus aureus USA300 at 4 times MIC by KEGG analysis; assay type: functional, organism-based
# [15] = tested on: Staphylococcus aureus; experiment: Bactericidal activity against Staphylococcus aureus DU1090; assay type: functional
# [16] = tested on: A549; experiment: Cytotoxicity against human A549 cells assessed as cell viability upto 8 ug/ml incubated for 6 hrs by LDH assay; assay type: toxicity, cell-based; settings: a549, 6 h, dose < 8 µg/ml
# [17] = tested on: Staphylococcus aureus; experiment: Upregulation of ATP level in Staphylococcus aureus USA300 upto 0.25 ug/ml incubated for 5 hrs; assay type: functional, organism-based; settings: dose <= 0.25 µg/ml
# [18] = tested on: Klebsiella pneumoniae; experiment: Bactericidal activity against Klebsiella pneumoniae E8.31; assay type: functional
# [19] = tested on: Staphylococcus aureus; experiment: Antibacterial activity against Staphylococcus aureus USA300 assessed as acceleration of TCA cycle measured by increase in gltA mRNA level upto 0.25 ug/ml incubated for 6 hrs by RT-PCR analysis; assay type: functional, organism-based; settings: dose <= 0.25 µg/ml
# [20] = tested on: Staphylococcus aureus; experiment: Disruption of cell membrane integrity in Staphylococcus aureus USA300 assessed as visible cavity formation on surface at 4 to 8 times MIC by TEM/SEM analysis; assay type: functional, organism-based
# [21] = tested on: Staphylococcus aureus; experiment: Antibacterial activity against Staphylococcus aureus USA300 assessed as acceleration of TCA cycle measured by increase in icd mRNA level upto 0.25 ug/ml incubated for 6 hrs by RT-PCR analysis; assay type: functional, organism-based; settings: dose <= 0.25 µg/ml
# [22] = tested on: Escherichia coli; experiment: Antibacterial activity against Escherichia coli ATCC 25922 incubated for 16 to 24 hrs by broth microdilution method; assay type: functional; settings: time 16-24 hrs
# [23] = tested on: Staphylococcus aureus; experiment: Disruption of cell membrane integrity in Staphylococcus aureus USA300 assessed as swelling at 4 to 8 times MIC by TEM/SEM analysis; assay type: functional, organism-based
# [24] = tested on: Staphylococcus aureus; experiment: Bactericidal activity against methicillin-resistant Staphylococcus aureus USA300 at >= 1 ug/ml measured upto 24 hrs by time-kill assay relative to control; assay type: functional; settings: dose >= 1 µg/ml
# [25] = tested on: Staphylococcus aureus; experiment: Antibacterial activity against methicillin-resistant Staphylococcus aureus infected in BALB/c mouse wound model assessed as reduction in bacterial load at 20 to 80 mg/kg administered topically on days 0, 3 and 6 measured after 6 days; assay type: functional, organism-based; settings: dose 20-80 mg/kg, route top, time 6.0 day
# [26] = tested on: Escherichia coli; experiment: Antibacterial activity against Escherichia coli […] incubated for 16 to 24 hrs by broth microdilution method; assay type: functional; settings: time 16-24 hrs
# [27] = tested on: Listeria monocytogenes; experiment: Inhibition of biofilm formation in Listeria monocytogenes EGD incubated for 24 hrs by crystal violet staining based analysis; assay type: functional, organism-based; settings: dose <= 0.13 µg/ml
# [28] = Hemolytic activity in rabbit RBCs upto 8 ug/ml incubated for 1 hr; assay type: toxicity, cell-based, Oryctolagus cuniculus; settings: erythrocyte, dose < 8 µg/ml
# [29] = tested on: Staphylococcus aureus; experiment: Eradication of mature biofilm formation in Staphylococcus aureus USA300 incubated for 12 hrs by crystal violet staining based analysis; assay type: functional, organism-based
# [30] = tested on: Caco-2; experiment: Cytotoxicity against human Caco-2 cells assessed as cell viability upto 8 ug/ml incubated for 6 hrs by LDH assay; assay type: toxicity, cell-based; settings: caco-2, 6 h, dose < 8 µg/ml
# [31] = tested on: Staphylococcus aureus; experiment: Impairment of antioxidant defense system in Staphylococcus aureus USA300 upto 0.25 ug/ml by WST-8 assay; assay type: functional, organism-based; settings: dose <= 0.25 µg/ml
# [32] = tested on: Streptococcus suis; experiment: Antibacterial activity against Streptococcus suis ZY05719 incubated for 16 to 24 hrs by broth microdilution method; assay type: functional; settings: time 16-24 hrs
# [33] = tested on: Staphylococcus aureus; experiment: Effect on biosynthesis of co-factors in Staphylococcus aureus USA300 at 4 times MIC by KEGG analysis; assay type: functional, organism-based
# [34] = tested on: Staphylococcus aureus; experiment: Antibacterial activity against Staphylococcus aureus USA300 assessed as acceleration of TCA cycle measured by increase in mqo mRNA level upto 0.25 ug/ml incubated for 6 hrs by RT-PCR analysis; assay type: functional, organism-based; settings: dose <= 0.25 µg/ml
# [35] = tested on: Staphylococcus aureus; experiment: Disruption of cell membrane integrity in Staphylococcus aureus USA300 assessed as indistinct cytoplasmic borders at 4 to 8 times MIC by TEM/SEM analysis; assay type: functional, organism-based
# [36] = tested on: Klebsiella pneumoniae; experiment: Bactericidal activity against Klebsiella pneumoniae 13b5; assay type: functional
# [37] = tested on: Staphylococcus aureus; experiment: Disruption of cell membrane integrity in Staphylococcus aureus USA300 assessed as increase in red fluorescence at 1 to 4 times MIC by SYTO-9/PI dye based CLSM analysis; assay type: functional, organism-based
# [38] = tested on: Streptococcus suis; experiment: Bactericidal activity against Streptococcus suis ZY05719 measured upto 24 hrs by time-kill assay; assay type: functional, organism-based
# [39] = tested on: Listeria monocytogenes; experiment: Antibacterial activity against Listeria monocytogenes ATCC 19115 incubated for 16 to 24 hrs by broth microdilution method; assay type: functional; settings: time 16-24 hrs
# [40] = tested on: Staphylococcus aureus; experiment: Antibacterial activity against Staphylococcus aureus USA400 incubated for 16 to 24 hrs by broth microdilution method; assay type: functional; settings: time 16-24 hrs
# [41] = tested on: Staphylococcus aureus; experiment: Inhibition of biofilm formation in Staphylococcus aureus USA300 assessed as decrease in green fluorescence at 0.06 to 0.13 ug/ml incubated for 24 hrs by SYTO 9 dye based CLSM analysis; assay type: functional, organism-based; settings: dose 0.06-0.13 µg/ml
# [42] = tested on: Staphylococcus aureus; experiment: Antibacterial activity against methicillin-resistant Staphylococcus aureus infected in BALB/c mouse wound model assessed as reduction in bacterial load at 20 to 80 mg/kg administered topically on days 0, 3 and 6 measured after 12 days; assay type: functional, organism-based; settings: dose 20-80 mg/kg, route top, time 12.0 day
structure (smiles),measurement,setting,value
CCn1c(=O)c(C(=O)Nc2nnc(-c3ccc(C)cn3)s2)c(O)c2ccccc21,Activity,[1],inactive
same,MIC,[2],0.04 µg/mL
same,Activity,[3],Active
same,MBC,[4],0.09 µg/mL
same,Activity,[5],Active
same,inhibition,[6],Active
same,Activity,[7],Active
same,Activity,[8],Active
same,Activity,[9],Active
same,MIC,[10],0.03 µg/mL
same,MIC,[11],0.02 µg/mL
same,MBC,[12],0.17 µg/mL
same,Activity,[13],Active
same,Activity,[14],Active
same,MBC,[15],0.23 µg/mL
same,Activity,[16],Non-toxic
same,Activity,[17],Active
same,MBC,[18],> 512 µg/mL
same,Activity,[19],Active
same,Activity,[20],Active
same,Activity,[21],Active
same,MIC,[22],> 512 µg/mL
same,Activity,[23],Active
same,Activity,[24],~100%
same,Activity,[25],inactive
same,MIC,[26],> 512 µg/mL
same,inhibition,[27],Dose-dependent-effect
same,Activity,[28],Non-toxic
same,Activity,[29],Active
same,Activity,[30],Non-toxic
same,Activity,[31],Active
same,MIC,[32],0.04 µg/mL
same,Activity,[33],Active
same,Activity,[34],Active
same,Activity,[35],Active
same,MBC,[36],> 512 µg/mL
same,Activity,[37],Active
same,Activity,[38],Active; Bacteria Were Suppressed Or Completely Eliminated
same,MIC,[39],0.02 µg/mL
same,MIC,[40],0.03 µg/mL
same,inhibition,[41],Active
same,Activity,[42],Active
